Reference: patent publication US8168651B2, “Protein kinase modulators” (Cylene Pharmaceuticals, Inc., priority 2008, dated 2012)

Tests used:
[1] = test system: MV-411; assay: MV-411 IC50 (Table 46); format: cell-based; details: Homo sapiens, MV4-11
[2] = target: recombinant human PIM1 (Homo sapiens (Human), UniProt P11309); assay: PIM-1 kinase activity in cell-free in vitro assay; format: biochemical
[3] = test system: MiaPaca human pancreatic carcinoma cells; assay: Cell-proliferation assay using Alamar Blue dye; format: cell-based; details: MIA PaCa-2
Outline: (§1)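 Cells were plated at 4,000-5,000 per well, exposed to compound dilutions for four days at 37° C. in 5% CO2, then given Alamar Blue for four hours. Fluorescence was read at 544 nm excitation and 590 nm emission, with medium-only blanks and untreated-cell controls.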

[4] = test system: PC-3 human prostatic cancer cells; assay: Cell-proliferation assay using Alamar Blue dye; format: cell-based; details: read-out: PC3 IC50
Outline: as §1

[5] = test system: K-562; assay: K-562 IC50 (Table 46); format: cell-based; details: Homo sapiens, K562
[6] = test system: MDA MB231; assay: MDA MB231 IC50 (Table 46); format: cell-based; details: Homo sapiens, MDA-MB-231
[7] = test system: MCF-7; assay: Cell-proliferation assay using Alamar Blue dye; format: cell-based; details: Homo sapiens, MCF7
Description: (§2) A representative cell-proliferation assay protocol using Alamar Blue dye (stored at 4° C., use 20 ul per well) is described hereafter.
(§3) 96-Well Plate Setup and Compound Treatment
(§4) • a. Split and trypsinize cells. • b. Count cells using hemocytometer. • c. Plate 4,000-5,000 cells per well in 100 μl of medium and seed into a 96-well plate according to the following plate layout. Add cell culture medium only to wells B10 to B12. Wells B1 to B9 have cells but no compound added.
(§5) • d. Add 100 μl of 2× drug dilution to each well in a concentration shown in the plate layout above. At the same time, add 100 μl of media into the control wells (wells B10 to B12). Total volume is 200 μl/well. • e. Incubate four (4) days at 37° C., 5% CO2 in a humidified incubator. • f. Add 20 μl Alamar Blue reagent to each well. • g. Incubate for four (4) hours at 37° C., 5% CO2 in a humidified incubator. • h. Record fluorescence at an excitation wavelength of 544 nm and emission wavelength of 590 nm using a microplate reader.
(§6) In the assays, cells are cultured with a test compound for approximately four days, the dye then is added to the cells and fluorescence of […] dye is detected after approximately four hours. Different types of cells can be utilized in the assays (e.g., HCT-116 human colorectal carcinoma cells, PC-3 human prostatic cancer cells and MiaPaca human pancreatic carcinoma cells). Anti-proliferative effects of representative compounds are provided hereafter

[8] = test system: A549; assay: Cell-proliferation assay using Alamar Blue dye; format: cell-based; details: Homo sapiens
Description: as §2, §3, §4, §5, §6

[9] = test system: LNCaP; assay: Cell-proliferation assay using Alamar Blue dye; format: cell-based; details: Homo sapiens
Description: as §2, §3, §4, §5, §6

[10] = target: FLT3 autophos (Homo sapiens (Human), UniProt P36888); assay: FLT3 autophos IC50 (Table 46); format: cell-based
Sequence of FLT3 autophos (P36888 27-993): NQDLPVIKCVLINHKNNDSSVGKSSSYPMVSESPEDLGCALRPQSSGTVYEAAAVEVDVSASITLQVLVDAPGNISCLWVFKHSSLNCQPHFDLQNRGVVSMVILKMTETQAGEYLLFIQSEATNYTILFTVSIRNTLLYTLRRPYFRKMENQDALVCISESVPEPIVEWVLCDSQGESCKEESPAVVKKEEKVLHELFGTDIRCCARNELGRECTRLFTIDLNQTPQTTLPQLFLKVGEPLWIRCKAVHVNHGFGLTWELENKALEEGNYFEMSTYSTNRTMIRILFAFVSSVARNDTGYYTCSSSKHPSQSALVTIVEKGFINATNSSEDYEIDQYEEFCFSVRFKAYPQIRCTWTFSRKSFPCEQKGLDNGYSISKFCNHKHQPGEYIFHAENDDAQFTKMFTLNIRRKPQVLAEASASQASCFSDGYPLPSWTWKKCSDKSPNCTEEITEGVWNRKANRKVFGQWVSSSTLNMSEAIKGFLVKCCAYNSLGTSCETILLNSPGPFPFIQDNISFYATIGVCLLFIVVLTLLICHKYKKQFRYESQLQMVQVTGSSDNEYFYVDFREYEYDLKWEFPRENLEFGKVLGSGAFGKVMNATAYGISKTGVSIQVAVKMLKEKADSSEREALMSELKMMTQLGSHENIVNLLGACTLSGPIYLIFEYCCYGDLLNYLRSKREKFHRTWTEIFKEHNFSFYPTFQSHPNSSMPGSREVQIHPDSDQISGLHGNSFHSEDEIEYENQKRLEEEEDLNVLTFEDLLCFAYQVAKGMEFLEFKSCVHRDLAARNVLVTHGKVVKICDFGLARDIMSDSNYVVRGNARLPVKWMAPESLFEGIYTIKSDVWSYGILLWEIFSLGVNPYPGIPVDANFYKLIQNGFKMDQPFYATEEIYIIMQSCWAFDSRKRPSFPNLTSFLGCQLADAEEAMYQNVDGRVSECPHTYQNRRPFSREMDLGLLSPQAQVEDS

[11] = test system: phospho-BAD ser112; assay: phospho-BAD ser112 IC50 (Table 46); format: cell-based
[12] = target: recombinant human CK2 (Homo sapiens (Human), UniProt P68400); assay: CK2 assay (cell-free, 33P-ATP filter plate); format: biochemical; details: for inhibition at 5 µM: read-out: CK2 Inhibition; for inhibition at 10 µM: read-out: CK2 % inhib @ 10 uM
Sequence of recombinant human CK2 (P68400 whole entry): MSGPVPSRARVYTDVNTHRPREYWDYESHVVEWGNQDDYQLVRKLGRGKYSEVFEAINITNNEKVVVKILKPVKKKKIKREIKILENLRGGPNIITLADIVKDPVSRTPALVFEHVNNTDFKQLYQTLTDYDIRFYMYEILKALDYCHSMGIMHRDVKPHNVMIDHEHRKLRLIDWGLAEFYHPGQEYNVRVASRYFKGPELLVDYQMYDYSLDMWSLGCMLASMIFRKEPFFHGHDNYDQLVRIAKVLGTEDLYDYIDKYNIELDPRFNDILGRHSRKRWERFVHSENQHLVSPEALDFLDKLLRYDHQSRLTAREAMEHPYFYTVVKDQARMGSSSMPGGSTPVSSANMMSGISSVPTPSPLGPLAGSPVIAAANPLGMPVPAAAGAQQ
Sequence of recombinant human CK2 (P67870 whole entry partner): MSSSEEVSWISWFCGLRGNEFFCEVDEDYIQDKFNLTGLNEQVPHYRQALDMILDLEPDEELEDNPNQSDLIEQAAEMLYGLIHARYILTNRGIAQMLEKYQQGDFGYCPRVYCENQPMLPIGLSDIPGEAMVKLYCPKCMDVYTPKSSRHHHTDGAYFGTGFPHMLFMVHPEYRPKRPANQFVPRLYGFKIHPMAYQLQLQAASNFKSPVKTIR

[13] = target: PARP-HSA enzyme (Homo sapiens (Human), UniProt P09874); assay: PARP assay (chemiluminescent PARP assay kit, Trevigen); format: biochemical; details: for IC50: read-out: PARP Inhibition IC50
Sequence of PARP-HSA enzyme (P09874 whole entry): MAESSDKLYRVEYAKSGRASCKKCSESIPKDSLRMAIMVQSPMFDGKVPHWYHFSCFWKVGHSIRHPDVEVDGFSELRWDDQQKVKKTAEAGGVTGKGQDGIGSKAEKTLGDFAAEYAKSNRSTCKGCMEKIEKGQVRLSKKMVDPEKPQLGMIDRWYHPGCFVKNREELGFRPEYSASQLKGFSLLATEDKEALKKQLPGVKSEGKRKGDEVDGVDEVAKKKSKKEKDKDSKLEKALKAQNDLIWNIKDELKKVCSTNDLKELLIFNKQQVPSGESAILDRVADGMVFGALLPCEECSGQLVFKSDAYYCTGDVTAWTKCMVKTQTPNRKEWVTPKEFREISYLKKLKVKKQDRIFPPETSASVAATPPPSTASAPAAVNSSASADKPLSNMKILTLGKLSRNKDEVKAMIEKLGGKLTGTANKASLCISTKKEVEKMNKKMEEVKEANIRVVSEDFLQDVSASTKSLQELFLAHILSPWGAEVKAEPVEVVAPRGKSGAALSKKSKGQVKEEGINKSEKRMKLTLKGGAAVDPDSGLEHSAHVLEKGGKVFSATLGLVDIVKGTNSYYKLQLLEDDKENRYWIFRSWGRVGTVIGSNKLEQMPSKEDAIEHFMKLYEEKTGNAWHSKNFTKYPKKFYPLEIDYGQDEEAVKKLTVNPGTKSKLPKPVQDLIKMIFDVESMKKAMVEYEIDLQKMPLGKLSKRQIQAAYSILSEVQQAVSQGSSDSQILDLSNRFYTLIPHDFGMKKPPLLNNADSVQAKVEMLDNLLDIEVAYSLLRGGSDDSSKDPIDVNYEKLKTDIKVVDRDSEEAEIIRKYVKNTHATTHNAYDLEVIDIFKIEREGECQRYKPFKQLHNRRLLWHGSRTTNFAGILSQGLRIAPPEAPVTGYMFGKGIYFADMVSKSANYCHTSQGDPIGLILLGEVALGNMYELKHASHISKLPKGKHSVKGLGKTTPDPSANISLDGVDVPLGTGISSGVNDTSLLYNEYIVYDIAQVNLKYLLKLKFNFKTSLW
Description: Modulatory activity of compounds described herein was assessed in vitro in cell-free CK2 assays. Modulatory activity of compounds described herein also are assessed in vitro in cell-free PARP assays. These assays are described hereafter.
PARP assays are conducted using a chemiluminescent PARP assay kit (Trevigen). Briefly, reactions are performed in Histone-coated strip wells, by adding 10 microliters test compound dissolved in 1×PARP Buffer (prepared by mixing 20×PARP buffer diluted with high-purity water) and 15 microliters diluted PARP-HSA enzyme (diluted in 1×PARP buffer, 0.1 unit per well) to 25 microliters PARP cocktail (prepared from 10×PARP cocktail and 10× activated DNA, both 2.5 microliters per well and 20 microliters per well of 1×PARP buffer). The reactions are incubated at ambient temperature for 60 minutes, then the liquid was removed. After washing the wells four times with PBS (200 ul), 50 microliters of STREP-HRP (Horseradish Peroxidase) solution (diluted 500-fold in 1× Strep-Diluent) was added and the reactions were allowed to incubate for 30 minutes at ambient temperature. The liquid was removed and, after washing the wells four times with PBS (200 ul), 50 microliters each of PeroxyGlo A and B (Chemiluminescent Horseradish Peroxidase substrates) are added and the resulting chemiluminescence quantified on the SpectraMax M5 plate reader.

[14] = test system: MDAMB231; assay: Cell-proliferation assay using Alamar Blue dye; format: cell-based; details: Homo sapiens, MDA-MB-231
Description: as §2, §3, §4, §5, §6

[15] = Pharmacokinetics after IV and PO dose in ICR mice; format: in vivo; details: for half-life: mouse, plasma
Description: […] Blood samples were collected at predetermined times and the plasma separated. Plasma was separated from the blood samples collected at 5, 15 and 30 minutes and 1, 2, 4, 8 and 24 hours post-dose.
Drug levels were quantified by the LC/MS/MS method described below. Noncompartmental pharmacokinetic analysis was applied for intravenous administration. A linear trapezoidal rule was used to compute AUC(0-24). The terminal t1/2 and C0 were calculated using the last three and the first three data points, respectively
Bioanalysis was performed using a Quattro Micro LC/MS/MS instrument in the MRM detection mode, with an internal standard (IS). Briefly, 15 µL plasma samples were prepared for analysis using protein precipitation with 120 μL of acetonitrile. The supernatants were transferred into a 96 well plate and subjected to LC-MS/MS analysis using a Phenomenex Polar-RP HPLC column. The mobile phases were 10 mM NH4HCO3 in water (Solution-A) and 10 mM NH4HCO3 in methanol (Solution-B). […] Quantitation of the analytes was performed in the batch mode with two bracketing calibration curves according to the bioanalytical sample list.

Sequence of recombinant human PIM1 (P11309 whole entry): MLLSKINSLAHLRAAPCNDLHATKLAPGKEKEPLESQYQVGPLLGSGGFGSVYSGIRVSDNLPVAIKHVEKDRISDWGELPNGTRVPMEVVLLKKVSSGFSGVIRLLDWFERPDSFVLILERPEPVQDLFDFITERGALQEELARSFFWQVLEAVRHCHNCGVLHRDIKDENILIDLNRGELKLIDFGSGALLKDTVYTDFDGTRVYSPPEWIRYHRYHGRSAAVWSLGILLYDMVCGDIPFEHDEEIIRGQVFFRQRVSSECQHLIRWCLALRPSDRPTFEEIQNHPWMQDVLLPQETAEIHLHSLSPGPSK

SMILES	IC50 [1] [nM]	IC50 [2] [nM]	IC50 [4] [µM]	IC50 [5] [nM]	IC50 [6] [nM]	IC50 [10] [µM]	IC50 [11] [nM]	further results
O=C(O)c1ccc2c(c1)nc(NCCc1ccccc1)c1ccncc12 [drawing 988]	–	–	–	–	–	–	–	IC50 [7]: 14.7 µM; IC50 [8]: 47 µM; IC50 [9]: 8.6 µM
CN(C)CCOc1ccc(Nc2nc3c(-c4nnc[nH]4)cccc3c3cnccc23)cc1	< 100	< 100	1.77	< 100	2560	> 10	< 100	–
O=C(O)c1ccc2c3ccccc3c(=O)n(CCCO)c2c1	–	–	–	–	–	–	–	inhibition at 5 µM [12]: 29%; IC50 [13]: 60 nM
O=C(Nc1ccc(N2CCOCC2)cc1)c1ccc2c(c1)[nH]c(=O)c1ccsc12	–	–	–	–	–	–	–	inhibition at 10 µM [12]: -3%; PARP % inhib @ 1 uM [13]: 0%
c1cc(-c2nnc[nH]2)c2nc(Nc3ccc(OCCN4CCOCC4)cc3)c3ccncc3c2c1	< 100	< 100	< 1	< 500	2040	> 10	< 500	IC50 [3]: 268 nM
CN(C)CCOc1ccc(Nc2nc3c(-c4nnc[nH]4)cccc3c3cnccc23)c(Cl)c1	< 100	< 100	–	6940	1230	5.41	< 100	–
O=C(O)c1ccc2c(c1)nc(NCCc1cccc(F)c1)c1ccncc12 [drawing 1002]	–	–	–	–	–	–	–	IC50 [7]: > 50 µM; IC50 [8]: 47.2 µM; IC50 [9]: 10.3 µM; IC50 [14]: 5.83 µM
c1cc(-c2nnc[nH]2)c2nc(NC3CCC3)c3ccncc3c2c1	< 100	< 100	< 0.5	< 500	> 10000	> 10	< 100	IC50 [3]: 7620 nM
COc1ccc(Nc2nc3c(-c4nnc[nH]4)cccc3c3cnccc23)c(F)c1	< 100	< 100	< 0.5	< 1000	6860	> 10	510	IC50 [3]: < 500 nM
COc1ccc(NC(=O)c2ccc3c(c2)[nH]c(=O)c2ccsc23)c(OC)c1	–	–	–	–	–	–	–	inhibition at 10 µM [12]: 3%; PARP % inhib @ 1 uM [13]: 0%
COC(=O)c1ccc2c(c1)nc(Cl)c1ccsc12 [drawing 695]	–	–	–	–	–	–	–	inhibition at 10 µM [12]: 18%; PARP % inhib @ 1 uM [13]: 18%
CCOC(=O)c1ccc(Nc2nc3c(-c4nnc[nH]4)cccc3c3cnccc23)c(Cl)c1	< 100	< 100	> 30	> 10000	> 10000	–	–	IC50 [3]: > 10000 nM
c1cc(-c2nnc[nH]2)c2nc(N3CCCC3)c3ccncc3c2c1	< 1000	< 500	> 30	3230	> 10000	> 10	2940	IC50 [3]: < 100 nM
CN(C)CCOc1ccc(Nc2nc3c(-c4nnc[nH]4)cccc3c3cnccc23)c(F)c1	< 100	–	12	< 1000	2180	–	–	–
FC(F)(F)Oc1ccc(Nc2nc3c(-c4nnc[nH]4)cccc3c3cnccc23)c(Cl)c1	< 100	< 100	> 30	> 10000	> 10000	> 10	4170	IC50 [3]: > 10000 nM
COc1ccccc1NC(=O)c1ccc2c(c1)[nH]c(=O)c1ccsc12	–	–	–	–	–	–	–	inhibition at 10 µM [12]: -7%; PARP % inhib @ 1 uM [13]: 0%
O=c1[nH]c2cc(-c3nnn[nH]3)ccc2c2ccccc12	–	–	–	–	–	–	–	IC50 [13]: 30 nM
O=C(O)c1ccc2c(c1)nc(OCCCO)c1ccccc12 [drawing 559]	–	–	–	–	–	–	–	inhibition at 5 µM [12]: 38%; IC50 [13]: 400 nM
O=C(O)c1ccc2c(c1)[nH]c(=O)c1ccccc12	–	–	–	–	–	–	–	inhibition at 5 µM [12]: 28%; IC50 [13]: 70 nM
C#Cc1cccc(Nc2nc3cc(C(=O)O)ccc3c3cncnc23)c1 [drawing 1129]	–	–	–	–	–	–	–	F(0-24 h) ([15]; PO 24.5 mg/kg): 26.5%; F(0-Inf) ([15]; PO 24.5 mg/kg): 31.1%; Kel ([15]; PO 24.5 mg/kg): 0.0594 h⁻¹; half-life ([15]; IV 3.4 mg/kg): 294 min; half-life ([15]; PO 24.5 mg/kg): 702 min
CN(C)CCn1c(=O)c2ccsc2c2ccc(C(=O)O)cc21	–	–	–	–	–	–	–	PARP % inhib @ 1 uM [13]: 5%
O=C(O)c1ccc2c(c1)[nH]c(=O)c1ccncc12	–	–	–	–	–	–	–	IC50 [13]: 1000 nM
O=C(O)c1ccc2c3sccc3c(=O)n(CCCO)c2c1	–	–	–	–	–	–	–	PARP % inhib @ 1 uM [13]: 21%
O=C(Nc1ccccc1)c1ccc2c(c1)[nH]c(=O)c1ccsc12	–	–	–	–	–	–	–	inhibition at 10 µM [12]: 22%; PARP % inhib @ 1 uM [13]: 0%
c1cc(-c2nnc[nH]2)c2nc(NC3CCCC3)c3ccncc3c2c1	< 500	< 100	> 30	1930	> 10000	> 10	< 500	–

Further lines, with some results ahead:

IC50 [1] [nM]	IC50 [2] [nM]	IC50 [4] [µM]	IC50 [5] [nM]	IC50 [6] [nM]	IC50 [10] [µM]	IC50 [11] [nM]	SMILES	further results
> 10000	< 100	< 0.5	< 500	2380	–	–	Oc1ccc(Nc2nc3c(-c4nnc[nH]4)cccc3c3cnccc23)c(Cl)c1	IC50 [3]: < 1000 nM
< 100	< 100	> 30	> 10000	> 10000	–	–	CNC(=O)c1cccc2c1nc(Nc1cccc(Cl)c1)c1ccncc12 [drawing 2307]	IC50 [3]: < 500 nM
< 100	< 100	–	< 500	< 1000	> 10	< 100	Fc1cc(OCCN2CCCC2)ccc1Nc1nc2c(-c3nnc[nH]3)cccc2c2cnccc12	–
< 100	–	3.66	< 1000	2940	–	–	CN1CCN(c2ccc(Nc3nc4c(-c5nnc[nH]5)cccc4c4cnccc34)c(Cl)c2)CC1	IC50 [3]: 1500 nM
< 100	< 100	1.51	2660	2730	–	–	CS(=O)(=O)c1ccc(Nc2nc3c(-c4nnc[nH]4)cccc3c3cnccc23)c(Cl)c1	–
< 100	< 100	> 30	> 10000	9640	–	–	NCc1ccc(Nc2nc3c(-c4nnc[nH]4)cccc3c3cnccc23)cc1	–
< 100	< 100	> 30	> 10000	> 10000	6.01	< 100	Clc1cc(OCCN2CCOCC2)ccc1Nc1nc2c(-c3nnc[nH]3)cccc2c2cnccc12	–
